Test results taken from ChEMBL document CHEMBL3351570, “Design and synthesis of 2-phenylnaphthalenoids as inhibitors of DNA topoisomeraseIIα and antitumor agents” (Eur J Med Chem, 2014).
Calls of active or inactive are those of the source. No cut-off for these calls is given here.

Tests used:
[1] = molecular target: DNA topoisomerase 2-alpha (Homo sapiens) (UniProt P11388); assay: Inhibition of human recombinant topoisomerase 2alpha assessed as reduction in kDNA decatenation at 100 uM incubated for 30 mins by DNA gel electrophoresis
A549 = assay: Cytotoxicity against human A549 cells after 72 hrs by sulforhodamine B assay; type: functional, cell-based; conditions: A549, 72 h
[2] = molecular target: DNA topoisomerase 2-alpha (Homo sapiens) (UniProt P11388); assay: Inhibition of human recombinant topoisomerase 2alpha assessed as reduction in pBR322 DNA relaxation at 100 uM incubated for 30 mins by DNA gel electrophoresis
HeLa = assay: Cytotoxicity against human HeLa cells after 72 hrs by sulforhodamine B assay; type: functional, cell-based
MDA-MB-231 = assay: Cytotoxicity against human MDA-MB-231 cells after 72 hrs by sulforhodamine B assay; type: functional, cell-based; conditions: MDA-MB-231, 72 h
[3] = molecular target: T1, DNA topoisomerase (Bos taurus) (UniProt A0JN73); assay: Inhibition of calf thymus DNA topoisomerase 1 assessed as reduction in pBR322 DNA relaxation at 100 uM incubated for 30 mins by DNA gel electrophoresis
T1 sequence (whole entry): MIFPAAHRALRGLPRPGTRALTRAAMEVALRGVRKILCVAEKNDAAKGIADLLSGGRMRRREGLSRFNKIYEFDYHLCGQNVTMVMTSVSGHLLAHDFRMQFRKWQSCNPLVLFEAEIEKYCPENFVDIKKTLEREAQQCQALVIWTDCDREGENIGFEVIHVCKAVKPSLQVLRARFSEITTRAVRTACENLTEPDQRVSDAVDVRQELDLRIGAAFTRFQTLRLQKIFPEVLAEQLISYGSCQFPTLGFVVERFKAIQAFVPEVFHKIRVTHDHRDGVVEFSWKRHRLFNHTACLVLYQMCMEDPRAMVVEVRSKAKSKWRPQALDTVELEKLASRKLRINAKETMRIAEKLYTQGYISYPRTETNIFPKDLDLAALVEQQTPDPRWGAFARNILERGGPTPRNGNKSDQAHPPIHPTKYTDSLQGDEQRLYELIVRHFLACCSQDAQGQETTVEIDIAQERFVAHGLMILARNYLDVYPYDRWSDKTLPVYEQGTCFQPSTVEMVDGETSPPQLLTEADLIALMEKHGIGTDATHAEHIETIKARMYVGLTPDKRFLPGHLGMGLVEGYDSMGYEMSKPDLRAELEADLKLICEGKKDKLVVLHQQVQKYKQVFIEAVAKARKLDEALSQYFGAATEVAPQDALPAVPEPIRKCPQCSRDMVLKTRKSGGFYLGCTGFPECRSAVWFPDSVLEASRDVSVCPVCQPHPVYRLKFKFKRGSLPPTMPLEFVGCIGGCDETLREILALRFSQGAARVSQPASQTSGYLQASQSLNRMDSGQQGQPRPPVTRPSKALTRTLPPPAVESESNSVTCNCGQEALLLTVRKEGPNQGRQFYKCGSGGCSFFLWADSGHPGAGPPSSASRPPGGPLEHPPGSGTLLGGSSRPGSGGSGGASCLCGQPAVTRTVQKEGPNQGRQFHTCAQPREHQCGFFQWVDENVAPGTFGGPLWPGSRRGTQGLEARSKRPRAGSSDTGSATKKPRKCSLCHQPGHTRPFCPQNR

Sequence of DNA topoisomerase 2-alpha (Homo sapiens) (P11388 whole entry): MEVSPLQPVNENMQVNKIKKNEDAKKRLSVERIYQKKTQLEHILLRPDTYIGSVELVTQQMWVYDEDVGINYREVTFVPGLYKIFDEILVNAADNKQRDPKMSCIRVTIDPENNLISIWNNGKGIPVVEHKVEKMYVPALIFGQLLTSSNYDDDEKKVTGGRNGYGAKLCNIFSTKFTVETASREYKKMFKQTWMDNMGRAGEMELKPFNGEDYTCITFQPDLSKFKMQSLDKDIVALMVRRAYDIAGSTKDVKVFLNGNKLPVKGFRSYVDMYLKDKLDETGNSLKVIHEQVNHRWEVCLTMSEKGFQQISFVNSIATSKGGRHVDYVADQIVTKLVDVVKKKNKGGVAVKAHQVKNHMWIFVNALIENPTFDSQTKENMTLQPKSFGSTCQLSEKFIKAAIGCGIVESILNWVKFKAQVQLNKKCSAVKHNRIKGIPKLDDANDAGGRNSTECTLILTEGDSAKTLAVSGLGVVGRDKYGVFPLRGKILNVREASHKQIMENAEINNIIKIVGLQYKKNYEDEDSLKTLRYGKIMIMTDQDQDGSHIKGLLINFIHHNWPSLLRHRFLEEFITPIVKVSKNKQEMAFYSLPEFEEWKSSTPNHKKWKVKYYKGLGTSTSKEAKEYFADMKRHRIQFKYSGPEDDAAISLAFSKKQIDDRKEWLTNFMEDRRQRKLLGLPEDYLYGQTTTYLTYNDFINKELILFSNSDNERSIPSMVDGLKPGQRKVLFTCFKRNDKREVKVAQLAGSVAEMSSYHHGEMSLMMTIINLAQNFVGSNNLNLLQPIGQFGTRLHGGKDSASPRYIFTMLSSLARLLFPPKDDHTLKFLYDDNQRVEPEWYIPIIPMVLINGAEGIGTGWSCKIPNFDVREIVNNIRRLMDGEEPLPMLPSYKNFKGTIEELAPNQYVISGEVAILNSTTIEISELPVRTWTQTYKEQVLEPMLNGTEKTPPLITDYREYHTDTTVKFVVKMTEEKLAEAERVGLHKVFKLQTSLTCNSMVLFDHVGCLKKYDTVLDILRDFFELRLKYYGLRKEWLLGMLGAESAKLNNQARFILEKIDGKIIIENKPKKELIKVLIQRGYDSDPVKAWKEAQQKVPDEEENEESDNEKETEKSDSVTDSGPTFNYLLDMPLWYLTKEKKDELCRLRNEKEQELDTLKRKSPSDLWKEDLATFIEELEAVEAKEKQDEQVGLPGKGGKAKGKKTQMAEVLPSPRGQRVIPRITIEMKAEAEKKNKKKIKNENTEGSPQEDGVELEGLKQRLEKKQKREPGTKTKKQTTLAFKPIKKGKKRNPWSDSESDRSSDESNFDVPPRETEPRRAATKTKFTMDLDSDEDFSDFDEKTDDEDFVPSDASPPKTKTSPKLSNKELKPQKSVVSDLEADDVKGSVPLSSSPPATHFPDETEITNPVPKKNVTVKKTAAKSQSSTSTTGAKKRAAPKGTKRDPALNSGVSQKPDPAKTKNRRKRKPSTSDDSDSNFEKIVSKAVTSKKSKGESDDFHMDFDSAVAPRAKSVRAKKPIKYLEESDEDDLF

SMILES	inhibition [1]	IC50 (A549) [µM]	inhibition [2]	IC50 (HeLa) [µM]	IC50 (MDA-MB-231) [µM]	inhibition [3]
Cc1cc(-c2ccc3cc(O)ccc3c2)ccc1N	Active	3.5	Active	2.9	2.1	–
COc1ccc2cc(-c3ccc(C(C)O)cc3)ccc2c1 (stereo not drawn)	–	> 20	–	> 20	69.8	–
O=C(O)c1cc(-c2ccc3cc(O)ccc3c2)ccc1O	–	> 20	–	> 20	31.5	–
COC(=O)c1ccc(C)c(-c2ccc3cc(O)ccc3c2)c1	Active	5	Active	1.2	0.5	–
CC(O)c1ccc(-c2ccc3cc(O)ccc3c2)cc1 (stereo not drawn)	–	19.9	–	3.4	7.6	–
COC(=O)c1cc(-c2ccc3cc(OC)ccc3c2)ccc1O	–	> 20	–	> 20	82.2	–
Nc1ccc(-c2ccc3cc(O)ccc3c2)cc1	–	19.8	–	3.1	18.2	–
Oc1ccc2cc(-c3ccc(O)c(O)c3)ccc2c1	Active	11.5	Active	4.6	4.3	–
COc1ccc2cc(-c3ccc(OC(C)=O)c(COC(C)=O)c3)ccc2c1	–	> 20	–	> 20	81.8	–
COC(=O)Cc1ccc(-c2ccc3cc(OC)ccc3c2)cc1	–	> 20	–	> 20	695	–
O=C(O)c1ccc(-c2ccc3cc(O)ccc3c2)cc1O	–	15.3	–	5.5	8.1	–
COc1ccc2cc(-c3cccc(CO)c3)ccc2c1	–	> 20	–	20	19.9	–
O=[N+]([O-])c1ccc(-c2ccc3cc(O)ccc3c2)cc1C(F)(F)F	Active	3.5	Active	1.9	4.5	–
COc1ccc2cc(-c3ccc(CCO)c(O)c3)ccc2c1	–	> 20	–	> 20	92	–
Cc1ccc(C(=O)O)c(-c2ccc3cc(O)ccc3c2)c1	Active	> 20	–	> 20	94.3	–
O=C(O)Cc1cc(-c2ccc3cc(O)ccc3c2)ccc1O	–	> 20	–	> 20	> 800	–
COc1ccc2cc(-c3ccc(CC(=O)O)cc3)ccc2c1	–	> 20	–	> 20	272	–
OCCc1cc(-c2ccc3cc(O)ccc3c2)ccc1O	Active	0.6	inactive	0.6	0.4	inactive
COC(=O)c1ccc(-c2ccc3cc(OC)ccc3c2)cc1O	–	> 20	–	> 20	77.3	–
OCc1cccc(-c2ccc3cc(O)ccc3c2)c1	–	9.1	–	3.2	5	–
COC(=O)Cc1cc(-c2ccc3cc(O)ccc3c2)ccc1O	–	–	–	–	98	–
COc1ccc2cc(-c3ccc(OC)c(C=O)c3)ccc2c1	–	> 20	–	> 20	> 800	–
O=Cc1cc(-c2ccc3cc(O)ccc3c2)ccc1O	Active	5	Active	2.1	2.4	Active
COc1ccc2cc(-c3ccc(OC)c(OC)c3)ccc2c1	–	> 20	–	> 20	112	–
COc1ccc2cc(-c3ccc(N)c(C)c3)ccc2c1	–	> 20	–	> 20	> 800	–
